Data: ChEMBL document CHEMBL5303766, “Data for DCP probe FHT-2344” (2022)

Legend:
[1] = molecular target: T1, Peripheral plasma membrane protein CASK (Homo sapiens) (UniProt O14936); test: CASK SGC Tm panel (DSF); conditions: for ΔTm: Compound concentration 10.0 uM
T1 sequence (whole entry): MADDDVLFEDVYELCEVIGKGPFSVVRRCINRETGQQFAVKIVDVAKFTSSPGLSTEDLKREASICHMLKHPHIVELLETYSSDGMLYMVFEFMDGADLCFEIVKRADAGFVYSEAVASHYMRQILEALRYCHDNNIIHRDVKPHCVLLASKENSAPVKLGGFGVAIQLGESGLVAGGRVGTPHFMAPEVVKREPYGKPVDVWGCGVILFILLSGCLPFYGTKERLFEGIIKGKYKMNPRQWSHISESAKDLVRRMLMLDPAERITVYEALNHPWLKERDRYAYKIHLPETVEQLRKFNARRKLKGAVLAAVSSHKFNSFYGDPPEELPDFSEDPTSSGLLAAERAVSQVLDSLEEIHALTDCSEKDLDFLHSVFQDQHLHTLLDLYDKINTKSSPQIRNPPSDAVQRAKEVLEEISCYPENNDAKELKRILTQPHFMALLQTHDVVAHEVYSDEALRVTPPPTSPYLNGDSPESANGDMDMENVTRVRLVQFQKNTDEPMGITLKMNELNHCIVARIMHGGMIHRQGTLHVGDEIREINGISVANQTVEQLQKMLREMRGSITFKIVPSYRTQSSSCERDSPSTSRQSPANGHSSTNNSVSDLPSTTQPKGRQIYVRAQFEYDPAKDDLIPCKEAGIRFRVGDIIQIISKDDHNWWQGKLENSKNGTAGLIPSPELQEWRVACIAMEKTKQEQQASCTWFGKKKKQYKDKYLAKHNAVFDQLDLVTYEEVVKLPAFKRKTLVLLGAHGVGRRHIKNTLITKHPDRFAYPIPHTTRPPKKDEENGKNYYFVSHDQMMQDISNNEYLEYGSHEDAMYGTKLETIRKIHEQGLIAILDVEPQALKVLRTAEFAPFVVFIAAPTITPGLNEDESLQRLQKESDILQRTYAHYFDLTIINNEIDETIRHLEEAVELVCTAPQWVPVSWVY

[2] = molecular target: T2, Serine/threonine-protein kinase haspin (Homo sapiens) (UniProt Q8TF76); test: GSG2 SGC Tm panel (DSF); conditions: for ΔTm: Compound concentration 10.0 uM
T2 sequence (whole entry): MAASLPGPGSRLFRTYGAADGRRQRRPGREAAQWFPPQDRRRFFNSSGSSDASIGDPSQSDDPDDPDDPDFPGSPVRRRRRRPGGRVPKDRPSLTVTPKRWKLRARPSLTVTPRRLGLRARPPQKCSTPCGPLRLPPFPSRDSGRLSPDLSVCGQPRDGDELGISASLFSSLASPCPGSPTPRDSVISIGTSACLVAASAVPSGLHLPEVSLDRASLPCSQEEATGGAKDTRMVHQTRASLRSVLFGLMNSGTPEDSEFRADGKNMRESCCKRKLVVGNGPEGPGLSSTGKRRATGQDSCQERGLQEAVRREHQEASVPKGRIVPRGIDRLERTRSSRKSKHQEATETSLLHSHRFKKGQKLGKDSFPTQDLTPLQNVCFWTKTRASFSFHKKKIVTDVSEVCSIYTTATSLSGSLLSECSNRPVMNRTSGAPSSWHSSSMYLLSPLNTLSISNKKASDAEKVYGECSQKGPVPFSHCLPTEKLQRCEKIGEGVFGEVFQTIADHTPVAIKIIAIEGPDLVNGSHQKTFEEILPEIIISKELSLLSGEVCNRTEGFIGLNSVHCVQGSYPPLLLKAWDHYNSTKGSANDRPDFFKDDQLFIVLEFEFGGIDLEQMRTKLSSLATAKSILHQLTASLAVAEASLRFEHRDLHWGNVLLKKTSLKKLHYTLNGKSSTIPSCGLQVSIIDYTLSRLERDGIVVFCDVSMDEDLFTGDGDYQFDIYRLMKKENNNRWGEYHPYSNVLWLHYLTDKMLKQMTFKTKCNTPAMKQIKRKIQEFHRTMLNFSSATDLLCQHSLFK

[3] = molecular target: Ephrin type-A receptor 2 (Homo sapiens) (UniProt P29317); test: EPHA2 SGC Tm panel (DSF); conditions: for ΔTm: Compound concentration 10.0 uM
[4] = molecular target: T3, Serine/threonine-protein kinase 3 (Homo sapiens) (UniProt Q13188); test: STK3 SGC Tm panel (DSF); conditions: for ΔTm: Compound concentration 10.0 uM
T3 sequence (whole entry): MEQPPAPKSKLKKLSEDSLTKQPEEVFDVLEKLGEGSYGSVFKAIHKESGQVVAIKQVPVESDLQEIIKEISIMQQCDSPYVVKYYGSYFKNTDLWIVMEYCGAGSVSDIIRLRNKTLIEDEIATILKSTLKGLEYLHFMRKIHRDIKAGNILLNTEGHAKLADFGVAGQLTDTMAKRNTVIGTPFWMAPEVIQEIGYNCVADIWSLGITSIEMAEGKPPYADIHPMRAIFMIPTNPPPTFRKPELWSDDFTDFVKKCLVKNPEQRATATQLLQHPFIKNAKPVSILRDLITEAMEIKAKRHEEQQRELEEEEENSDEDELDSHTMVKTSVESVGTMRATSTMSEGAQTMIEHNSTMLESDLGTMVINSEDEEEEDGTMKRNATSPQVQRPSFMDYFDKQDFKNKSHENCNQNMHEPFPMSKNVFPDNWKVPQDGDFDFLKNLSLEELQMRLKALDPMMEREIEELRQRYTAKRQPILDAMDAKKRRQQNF

[5] = molecular target: Histamine H1 receptor (Homo sapiens) (UniProt P35367); conditions: Compound concentration 10.0 uM
Sequence of Histamine H1 receptor (Homo sapiens) (P35367 whole entry): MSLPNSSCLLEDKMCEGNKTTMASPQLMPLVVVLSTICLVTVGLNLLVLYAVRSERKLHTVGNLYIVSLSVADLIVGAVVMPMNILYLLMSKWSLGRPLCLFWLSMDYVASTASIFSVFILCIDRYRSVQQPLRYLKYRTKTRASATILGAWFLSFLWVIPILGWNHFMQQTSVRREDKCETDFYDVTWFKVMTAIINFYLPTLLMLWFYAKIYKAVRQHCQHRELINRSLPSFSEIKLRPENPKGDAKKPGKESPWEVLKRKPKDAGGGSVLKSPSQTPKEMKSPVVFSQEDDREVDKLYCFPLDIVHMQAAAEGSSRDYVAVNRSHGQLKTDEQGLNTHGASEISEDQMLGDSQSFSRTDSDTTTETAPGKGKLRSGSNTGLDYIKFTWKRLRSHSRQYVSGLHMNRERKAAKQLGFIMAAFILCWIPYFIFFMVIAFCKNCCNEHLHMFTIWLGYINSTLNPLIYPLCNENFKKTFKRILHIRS

Sequence of Ephrin type-A receptor 2 (Homo sapiens) (P29317 whole entry): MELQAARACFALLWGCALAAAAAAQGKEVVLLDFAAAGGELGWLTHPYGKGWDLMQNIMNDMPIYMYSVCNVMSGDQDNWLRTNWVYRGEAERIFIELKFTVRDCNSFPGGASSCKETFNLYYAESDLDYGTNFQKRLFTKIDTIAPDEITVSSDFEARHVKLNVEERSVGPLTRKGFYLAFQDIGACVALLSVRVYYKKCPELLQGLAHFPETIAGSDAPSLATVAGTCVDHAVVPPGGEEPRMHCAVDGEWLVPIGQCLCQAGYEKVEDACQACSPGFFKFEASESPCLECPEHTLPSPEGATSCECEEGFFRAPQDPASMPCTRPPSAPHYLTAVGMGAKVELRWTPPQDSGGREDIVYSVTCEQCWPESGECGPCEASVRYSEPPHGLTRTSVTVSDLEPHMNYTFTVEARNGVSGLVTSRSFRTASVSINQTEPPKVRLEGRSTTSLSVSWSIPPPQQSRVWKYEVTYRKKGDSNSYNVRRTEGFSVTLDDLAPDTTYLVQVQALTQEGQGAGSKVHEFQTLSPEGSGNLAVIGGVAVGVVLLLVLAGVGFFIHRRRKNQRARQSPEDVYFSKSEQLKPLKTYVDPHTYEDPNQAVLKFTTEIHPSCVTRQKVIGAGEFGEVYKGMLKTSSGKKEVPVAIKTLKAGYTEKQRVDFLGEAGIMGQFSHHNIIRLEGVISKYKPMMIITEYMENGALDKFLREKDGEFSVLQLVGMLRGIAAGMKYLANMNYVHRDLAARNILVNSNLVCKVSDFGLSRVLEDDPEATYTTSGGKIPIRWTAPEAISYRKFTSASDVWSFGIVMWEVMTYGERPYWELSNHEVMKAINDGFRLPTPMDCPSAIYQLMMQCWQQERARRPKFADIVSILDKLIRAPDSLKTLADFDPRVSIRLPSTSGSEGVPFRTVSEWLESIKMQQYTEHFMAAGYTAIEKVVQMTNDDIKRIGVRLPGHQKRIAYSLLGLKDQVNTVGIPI

Structure (SMILES): COC[C@H](NC(=O)c1ccn(S(C)(=O)=O)c1)C(=O)Nc1nc(-c2cccc(-c3ccn(C)n3)c2)cs1
- delta Tm Staurosporine positive control [1]: 4.91
- ΔTm [1]: 0.501
- delta Tm Staurosporine positive control [2]: 7.11
- ΔTm [2]: -0.207
- delta Tm Staurosporine positive control [3]: 7.67
- ΔTm [3]: 0.202
- delta Tm Staurosporine positive control [4]: 15.5
- ΔTm [4]: 1.34
- inhibition [5]: 1.95%

Structure (SMILES): C[C@H](NC(=O)c1cn(C2(C#N)CC2)cn1)C(=O)Nc1nc(-c2cccc(-c3ccn(C)n3)c2)cs1
- delta Tm Staurosporine positive control [1]: 4.91
- ΔTm [1]: 0.617
- delta Tm Staurosporine positive control [2]: 7.11
- ΔTm [2]: -1.11
- delta Tm Staurosporine positive control [3]: 7.67
- ΔTm [3]: 0.2
- delta Tm Staurosporine positive control [4]: 15.5
- ΔTm [4]: 0.324
- inhibition [5]: 12.5%
